The values that follow come from US20130197032A1, “[…] COMPOUNDS FOR THE TREATMENT OF NEUROLOGICAL AND […] DISORDERS” (A. CARLSSON RESEARCH AB, priority 2010, published 2013).

The target in assay [1] is T1, D2 receptors (Homo sapiens, UniProt P14416). As to the kind of experiment: R-SAT functional assay at D2. It counts as cell-based. Also noted: expressed in transfected cells; host or cells: NIH-3T3. The note with it: for R-SAT Eff(%): percent response of reference ligand pergolide.
Assay [2] concerns the target T2, human 5-HT2A receptors (Homo sapiens, UniProt P28223). The experiment in a line: R-SAT functional assay at 5-HT2A. It is filed as cell-based. Also noted: expressed in transfected cells; host or cells: NIH-3T3. The note with it: for R-SAT Eff(%): percent response of reference ligand 5-CT; for Eff (%): percent response of reference 5-CT; for potency at 5-HT2A receptors compared with D2 receptors: comparison of Table 1 and Table 2.

The target of another assay is human 5-HT1B receptor (Homo sapiens, UniProt P28222). As to the kind of experiment: R-SAT assay 5-HT1B. The note with it: Table 3, 5-HT1B; for Eff (%): percent response of reference 5-CT. It is filed as cell-based.
Sequence of human 5-HT1B receptor (P28222 whole entry): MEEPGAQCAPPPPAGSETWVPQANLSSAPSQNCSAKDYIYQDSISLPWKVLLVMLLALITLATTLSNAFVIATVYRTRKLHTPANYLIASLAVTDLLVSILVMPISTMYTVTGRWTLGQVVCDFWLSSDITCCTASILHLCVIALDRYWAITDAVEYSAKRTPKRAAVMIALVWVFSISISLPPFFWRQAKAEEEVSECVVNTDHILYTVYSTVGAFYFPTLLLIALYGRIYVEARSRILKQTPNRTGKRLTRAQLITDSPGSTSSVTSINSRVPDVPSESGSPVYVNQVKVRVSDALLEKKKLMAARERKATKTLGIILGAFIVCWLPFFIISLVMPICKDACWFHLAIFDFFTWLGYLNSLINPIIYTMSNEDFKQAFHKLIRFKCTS
The target of a further assay is T3, human alpha2A receptor (Homo sapiens, UniProt P08913).
T3 construct: expressed in transfected cells; host or cells: NIH/3T3 cells, transient transfection, pSI vector
T3 sequence (P08913 whole entry): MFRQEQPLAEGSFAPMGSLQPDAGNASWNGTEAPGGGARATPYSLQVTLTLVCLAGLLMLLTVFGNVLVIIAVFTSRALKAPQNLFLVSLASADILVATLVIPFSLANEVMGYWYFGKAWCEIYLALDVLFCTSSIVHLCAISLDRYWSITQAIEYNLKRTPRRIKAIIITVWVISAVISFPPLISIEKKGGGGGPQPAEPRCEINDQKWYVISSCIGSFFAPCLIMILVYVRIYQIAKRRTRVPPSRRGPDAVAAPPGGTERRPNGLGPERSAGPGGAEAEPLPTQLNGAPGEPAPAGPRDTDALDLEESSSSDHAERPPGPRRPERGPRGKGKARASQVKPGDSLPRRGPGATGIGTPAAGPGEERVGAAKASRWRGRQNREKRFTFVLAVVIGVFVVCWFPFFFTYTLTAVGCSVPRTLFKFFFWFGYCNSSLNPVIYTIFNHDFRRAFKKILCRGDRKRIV
As to the kind of experiment: R-SAT assay α2A. It counts as cell-based. As to conditions: Table 3, α2A; percent response of reference UK 14,306.

The target in another assay is T4, human H1 receptor (Homo sapiens, UniProt P35367).
T4 construct: expressed in transfected cells; host or cells: NIH/3T3
T4 sequence (P35367 whole entry): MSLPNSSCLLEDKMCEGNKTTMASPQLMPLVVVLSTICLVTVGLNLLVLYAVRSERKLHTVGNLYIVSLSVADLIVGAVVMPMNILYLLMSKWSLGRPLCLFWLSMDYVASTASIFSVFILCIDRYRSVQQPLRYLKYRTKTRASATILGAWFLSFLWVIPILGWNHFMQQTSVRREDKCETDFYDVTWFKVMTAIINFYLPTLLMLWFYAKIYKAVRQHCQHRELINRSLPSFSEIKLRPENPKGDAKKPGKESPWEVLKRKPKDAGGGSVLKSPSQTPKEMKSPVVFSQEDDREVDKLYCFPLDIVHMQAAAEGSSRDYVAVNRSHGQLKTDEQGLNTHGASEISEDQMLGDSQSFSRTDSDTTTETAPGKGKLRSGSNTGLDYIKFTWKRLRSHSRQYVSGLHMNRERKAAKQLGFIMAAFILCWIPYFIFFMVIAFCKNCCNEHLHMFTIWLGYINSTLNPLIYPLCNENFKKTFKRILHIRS
The experiment in a line: R-SAT assay H1. It is filed as cell-based. The note with it: Table 3, H1; percent response of reference Histamine.

For assay [3], the system named is reserpine-pretreated mice. The experiment in a line: Motor activity in monoamine-depleted (reserpine-pretreated) mice, video tracking. As to conditions: for motor activity (distance moved, DM 1.5): reserpine 10 mg/kg ip 20 h prior, test drug ip just prior to recording, first 30 minutes, vs reserpine only group.
In a further assay the target is T5, human 5-HT1E receptor (Homo sapiens, UniProt P28566).
T5 construct: expressed in transfected cells; host or cells: NIH/3T3
T5 sequence (P28566 whole entry): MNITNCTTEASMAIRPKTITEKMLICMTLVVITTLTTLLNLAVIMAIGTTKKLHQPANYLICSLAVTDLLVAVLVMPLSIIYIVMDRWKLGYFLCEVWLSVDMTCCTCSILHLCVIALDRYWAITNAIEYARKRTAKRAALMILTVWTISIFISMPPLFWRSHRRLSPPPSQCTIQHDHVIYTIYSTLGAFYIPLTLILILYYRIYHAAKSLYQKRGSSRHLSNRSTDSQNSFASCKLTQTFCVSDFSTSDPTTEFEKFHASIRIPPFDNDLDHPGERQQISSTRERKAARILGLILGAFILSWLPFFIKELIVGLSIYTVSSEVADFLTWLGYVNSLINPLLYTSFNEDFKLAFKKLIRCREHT
The experiment in a line: R-SAT assay 5-HT1E. It counts as cell-based. As to conditions: Table 3, 5-HT1E; percent response of reference BRL 54443.

The next assay deals with T6, human alpha2C receptor (Homo sapiens, UniProt P18825).
T6 construct: expressed in transfected cells; host or cells: NIH/3T3 cells, transient transfection, pSI vector
T6 sequence (P18825 1-462): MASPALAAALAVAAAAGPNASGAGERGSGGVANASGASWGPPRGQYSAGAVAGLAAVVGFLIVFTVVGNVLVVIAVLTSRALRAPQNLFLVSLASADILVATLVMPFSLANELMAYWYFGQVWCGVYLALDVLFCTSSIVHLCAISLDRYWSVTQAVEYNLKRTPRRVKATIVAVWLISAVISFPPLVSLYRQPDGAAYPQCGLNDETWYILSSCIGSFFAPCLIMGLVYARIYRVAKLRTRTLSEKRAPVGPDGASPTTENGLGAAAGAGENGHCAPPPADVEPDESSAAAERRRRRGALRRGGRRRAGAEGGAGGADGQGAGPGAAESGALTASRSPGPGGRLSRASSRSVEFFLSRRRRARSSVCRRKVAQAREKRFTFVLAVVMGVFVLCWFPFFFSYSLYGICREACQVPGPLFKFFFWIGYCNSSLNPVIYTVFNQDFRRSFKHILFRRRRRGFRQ
The experiment in a line: R-SAT assay α2C. It is filed as cell-based. The note with it: Table 3, α2C; percent response of reference UK 14,306.

The target in assay [4] is T1, D2 receptors. As to the kind of experiment: BRET2 beta-arrestin-2 recruitment assay at D2. It counts as cell-based. The arrangement: expressed in transfected cells; host or cells: HEK-293T. As to conditions: percent response of reference ligand dopamine; mean ± SEM. In general terms: BRET reads energy transfer from a luciferase to a nearby fluorophore.
Protocol: BRET-2 signals were measured using the multiplate reader Mithras 940LB (Berthold Technologies, Bad Wildbad, Germany) and were calculated as the ratio between the Renilla luciferase emission and the GFP2 emission corrected by the background emissions of non-transfected cells.
Each curve is representative of two to three independent experiments.
Assay [5] concerns the target T2, human 5-HT2A receptors. As to the kind of experiment: Phosphatidyl inositol (PI) hydrolysis assay at 5-HT2A. It counts as cell-based. The arrangement: expressed in transfected cells. The note with it: mean ± SEM; for EC50: negative logarithm of EC50 in molar (M), HEK 293T cells, read-out: PI Hydrolysis pEC50 (converted); for PI Hydrolysis Eff (%): percent response of reference ligand 5-HT.
Protocol: After lysing the cells with 50 μl of 0.1M formic acid, 20 μl each cell lysate was mixed with 80 μl (1 mg) RNA Binding YSi-SPA beads (GE Healthcare, Chalfont St. Giles, UK) on PICO plates (PerkinElmer) and counted on a TopCount (Packard).
Each curve is representative of at least three or more independent experiments.

Assay [6] deals with T7, human 5-HT2C(vgv) receptor (Homo sapiens, UniProt P28335, I156V/I160V/N158G).
T7 construct: expressed in transfected cells; host or cells: NIH/3T3
T7 sequence (P28335 33-458 I156V/N158G/I160V): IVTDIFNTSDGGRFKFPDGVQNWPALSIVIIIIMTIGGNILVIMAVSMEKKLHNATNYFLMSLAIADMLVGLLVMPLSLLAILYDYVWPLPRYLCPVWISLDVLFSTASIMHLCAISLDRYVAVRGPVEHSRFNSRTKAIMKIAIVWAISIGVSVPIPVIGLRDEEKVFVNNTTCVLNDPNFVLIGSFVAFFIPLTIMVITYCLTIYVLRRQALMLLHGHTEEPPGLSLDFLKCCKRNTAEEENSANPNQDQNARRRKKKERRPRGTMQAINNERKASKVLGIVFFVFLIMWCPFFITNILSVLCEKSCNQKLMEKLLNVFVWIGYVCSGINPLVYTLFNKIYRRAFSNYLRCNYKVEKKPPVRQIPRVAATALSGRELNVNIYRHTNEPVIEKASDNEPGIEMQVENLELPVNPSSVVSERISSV
As to the kind of experiment: R-SAT assay 5-HT2C. It is filed as cell-based. As to conditions: Table 3, 5-HT2C; for pEC50: negative logarithm of EC50 in molar; for Eff (%): percent response of reference 5-CT.

A further assay has as its target T8, human alpha2B receptor (Homo sapiens, UniProt P18089).
T8 construct: expressed in transfected cells; host or cells: NIH/3T3 cells, transient transfection, pSI vector
The experiment in a line: R-SAT assay α2B. It counts as cell-based. The note with it: Table 3, α2B; percent response of reference UK 14,306.

A further assay deals with T9, human 5-HT1A receptor (Homo sapiens, UniProt P08908).
T9 construct: expressed in transfected cells; host or cells: NIH/3T3
T9 sequence (P08908 whole entry): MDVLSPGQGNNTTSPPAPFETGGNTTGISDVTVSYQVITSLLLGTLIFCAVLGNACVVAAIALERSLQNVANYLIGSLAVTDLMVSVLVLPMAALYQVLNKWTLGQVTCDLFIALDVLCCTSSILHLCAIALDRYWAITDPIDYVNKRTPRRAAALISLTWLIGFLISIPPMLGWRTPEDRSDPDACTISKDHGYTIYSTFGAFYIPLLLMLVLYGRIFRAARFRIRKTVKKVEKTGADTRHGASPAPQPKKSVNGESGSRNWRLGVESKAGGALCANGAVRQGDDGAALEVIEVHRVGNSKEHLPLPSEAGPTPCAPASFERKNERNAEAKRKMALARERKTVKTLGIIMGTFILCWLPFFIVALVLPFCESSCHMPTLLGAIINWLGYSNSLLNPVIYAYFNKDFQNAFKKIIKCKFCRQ
As to the kind of experiment: R-SAT assay 5-HT1A. The note with it: Table 3, 5-HT1A; percent response of reference 8-OH-DPAT. It counts as cell-based.

Where [7] appears, read: Table 1, negative logarithm of EC50 in molar (M), NIH3T3 cells, mean ± SEM, read-out: R-SAT pEC50 (converted).
Where [8] appears, read: Table 3, 5-HT2A, negative logarithm of EC50 in molar, read-out: pEC50 (converted).

pEC50: −log10 of the molar value. Read-outs that look alike come from different tables or passages of the source.

T2 sequence (P28223 whole entry): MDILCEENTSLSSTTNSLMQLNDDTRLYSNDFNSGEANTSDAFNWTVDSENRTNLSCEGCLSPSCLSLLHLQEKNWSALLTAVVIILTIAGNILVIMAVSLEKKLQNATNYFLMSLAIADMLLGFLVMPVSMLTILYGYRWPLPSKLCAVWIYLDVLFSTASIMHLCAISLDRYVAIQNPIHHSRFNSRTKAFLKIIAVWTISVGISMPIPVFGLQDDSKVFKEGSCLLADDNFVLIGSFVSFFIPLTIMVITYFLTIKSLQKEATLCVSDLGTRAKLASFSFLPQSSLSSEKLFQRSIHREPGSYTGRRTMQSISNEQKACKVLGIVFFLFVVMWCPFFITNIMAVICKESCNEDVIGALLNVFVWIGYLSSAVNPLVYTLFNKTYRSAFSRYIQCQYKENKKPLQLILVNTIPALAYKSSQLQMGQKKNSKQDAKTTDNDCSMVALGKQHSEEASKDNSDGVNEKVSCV
T1 sequence (P14416 1-414 isoform P14416-2): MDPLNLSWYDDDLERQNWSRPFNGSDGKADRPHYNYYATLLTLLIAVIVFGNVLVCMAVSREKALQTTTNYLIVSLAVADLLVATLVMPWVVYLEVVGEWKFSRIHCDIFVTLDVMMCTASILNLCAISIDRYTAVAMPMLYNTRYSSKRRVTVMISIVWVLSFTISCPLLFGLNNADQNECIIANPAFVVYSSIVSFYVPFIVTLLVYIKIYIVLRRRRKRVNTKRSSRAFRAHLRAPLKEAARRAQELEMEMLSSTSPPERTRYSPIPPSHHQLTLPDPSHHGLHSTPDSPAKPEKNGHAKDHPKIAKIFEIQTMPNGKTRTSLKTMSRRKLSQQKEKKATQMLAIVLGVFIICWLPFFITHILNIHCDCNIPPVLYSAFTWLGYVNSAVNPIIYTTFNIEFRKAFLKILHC
T8 sequence (P18089 whole entry): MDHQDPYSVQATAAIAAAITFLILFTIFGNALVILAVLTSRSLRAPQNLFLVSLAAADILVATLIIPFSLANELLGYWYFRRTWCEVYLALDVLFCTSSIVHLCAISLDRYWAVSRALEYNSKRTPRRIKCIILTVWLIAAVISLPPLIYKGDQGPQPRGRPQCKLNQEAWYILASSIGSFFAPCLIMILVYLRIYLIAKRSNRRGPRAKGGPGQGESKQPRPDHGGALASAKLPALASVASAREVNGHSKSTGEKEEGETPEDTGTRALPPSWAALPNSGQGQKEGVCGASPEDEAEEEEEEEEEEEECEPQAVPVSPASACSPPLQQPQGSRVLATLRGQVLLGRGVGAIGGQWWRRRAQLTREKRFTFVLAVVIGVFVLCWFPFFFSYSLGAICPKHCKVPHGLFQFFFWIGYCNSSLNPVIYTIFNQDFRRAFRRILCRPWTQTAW

Broadly, the pEC50 is the EC50 on a negative log10 scale, so that one unit is a factor of ten. Lower therefore signals a high EC50. In the case of `CCCN1CCC[C@H](c2cccc(S(C)(=O)=O)c2)C1` [(+)-OSU6162, (3R)-3-[3-(methylsulfonyl)phenyl]-1-propylpiperidine], the Emax at 50 µM on D2 receptors [1] (read-out: Eff (%), response at 50 μM) came out at 77%; at D2 receptors [1] (read-out: R-SAT Eff(%), response at 50 μM) it was 77%. In addition, the EC50 at human 5-HT2A receptors [2] (setting [7]) is 1.58e-06 M; at human 5-HT2A receptors [2] (setting [8]) it was 1.58e-06 M; at human 5-HT2A receptors [5], 2e-06 M. For the same compound, at human 5-HT2A receptors [2] (Table 1, mean ± SEM), the “R-SAT Eff(%)” value is recorded as 139 ± 14%. Further, the “Eff (%)” value amounted to 139% at human 5-HT2A receptors [2] (Table 3, 5-HT2A); 20% at human 5-HT1B receptor; 5% on human alpha2A receptor; 3% at human H1 receptor; 5% on human 5-HT1E receptor; 13% on human alpha2C receptor. The “Eff (%)” value in assay [6] worked out at 84%; at human alpha2B receptor, 8%; on human 5-HT1A receptor, 24%. Also, the “potency at 5-HT2A receptors compared with D2 receptors” value at human 5-HT2A receptors [2] is “more potent at 5-HT2A than D2 receptors”. In addition, the “motor activity (distance moved, DM 1.5)” value in assay [3] was “statistically significant increase in motor activity at 125, 250 and 500 μmol/kg, with a peak response at 250 μmol/kg”. Also, the “effect on motor activity compared with the (−)-enantiomer” value in assay [3] (reserpine-pretreated mice, 250 μmol/kg ip, p<0.01) is reported as “much larger effect on motor activity”. Further, at D2 receptors [4], the “BRET2 Eff %” value was 0 ± 0%. Moreover, the “PI Hydrolysis Eff (%)” value on human 5-HT2A receptors [5] came out at 82 ± 4%. Moreover, in assay [6], the pEC50 was 4.50.

As to `CCCN1CCC[C@@H](c2cccc(S(C)(=O)=O)c2)C1` [(−)-OSU6162, (3S)-3-[3-(methylsulfonyl)phenyl]-1-propylpiperidine], the “R-SAT pEC50” value at D2 receptors [1] (Table 2, negative logarithm of EC50 in molar, NIH3T3 cells, mean ± SEM) came to 6.1 ± 0.3. For the same compound, the EC50 was 794 nM at D2 receptors [1] (Table 2, negative logarithm of EC50 in molar, NIH3T3 cells, mean ± SEM, read-out: R-SAT pEC50 (converted)); 794 nM at D2 receptors [1] (Table 3, D2, negative logarithm of EC50 in molar, read-out: pEC50 (converted)); 6.31e-07 M on human 5-HT2A receptors [2] (setting [7]); 6.31e-07 M on human 5-HT2A receptors [2] (setting [8]); 2510 nM at human 5-HT1B receptor (negative logarithm of EC50 in molar, read-out: pEC50 (converted)); 1.26e-06 M on human 5-HT2A receptors [5]. Besides, the “R-SAT Eff(%)” value on D2 receptors [1] (Table 2, mean ± SEM) is reported as 30%; at D2 receptors [1] (Table 2, mean ± SEM, listed as (−)-OSU-6162), 36 ± 3%; at human 5-HT2A receptors [2] (Table 1, mean ± SEM), 113 ± 18%. Also, the “Eff (%)” value on D2 receptors [1] (Table 3, D2, percent response of reference Pergolide) worked out at 36%; on human 5-HT2A receptors [2] (Table 3, 5-HT2A) it was 113%; on human 5-HT1B receptor, 75%; on human alpha2A receptor it was 2%; on human H1 receptor, 2%; at human 5-HT1E receptor it was 5%. The “Eff (%)” value is listed as 6% at human alpha2C receptor, 68% in [6], 13% at human alpha2B receptor and 14% at human 5-HT1A receptor. In addition, at human 5-HT2A receptors [2], the “potency at 5-HT2A receptors compared with D2 receptors” value was “equipotent at D2 and 5-HT2A receptors”. In assay [3], the “motor activity (distance moved, DM 1.5)” value was “statistically significant increase in motor activity at 125 and 250 μmol/kg”. At D2 receptors [4], the “BRET2 Eff %” value was 0 ± 0%. Also, at human 5-HT2A receptors [5], the “PI Hydrolysis Eff (%)” value is reported as 65 ± 4%. The pEC50 in assay [6] is 5.10.
